Laboratory results from publication PMC7058083, “Structural basis of ligand binding modes at the human formyl peptide receptor 2” (Nature Communications, 2020).
Substitutions are numbered along the chain they refer to.

Experiments:
Assay in all cases: Saturation binding of WK(FITC)YMVm, flow cytometry on HEK293F cells
[1] = target: T1, wild-type (WT) and mutant FPR2 (Homo sapiens, UniProt P25090, E89G); settings: FPR2 E89G
T1 construct: expressed in transfected cells; host or cells: HEK293F
T1 sequence (P25090 1-351 E89G): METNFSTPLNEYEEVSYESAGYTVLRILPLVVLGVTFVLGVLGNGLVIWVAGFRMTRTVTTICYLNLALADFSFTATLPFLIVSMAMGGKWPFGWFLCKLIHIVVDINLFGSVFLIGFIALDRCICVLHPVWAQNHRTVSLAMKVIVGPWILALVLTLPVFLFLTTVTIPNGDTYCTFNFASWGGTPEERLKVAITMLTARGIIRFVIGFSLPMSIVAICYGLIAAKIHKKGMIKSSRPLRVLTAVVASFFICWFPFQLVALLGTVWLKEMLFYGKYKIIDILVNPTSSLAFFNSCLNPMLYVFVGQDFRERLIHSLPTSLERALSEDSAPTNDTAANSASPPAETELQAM
Description: (§1) Flag-tagged wild-type and mutant FPR2s were cloned into the pTT5 vector and expressed in HEK293F cells. The cells were harvested, and washed with Hanks’ Balanced Salt Solution (HBSS) buffer supplemented with 0.5% bovine serum albumin and 20 mM HEPES, pH 7.4. The cells were then resuspended in the same buffer to the final concentration of 1 × 10^6 cells per ml. The cell-surface expression was measured as mentioned above. […] Mean fluorescent intensity of each well was then read by a FCM (flow cytometry) reader (Millipore). […] For competitive binding of fMLFK, cells were plated in 96-well plates (100,000 cells per well), and incubated with WK(FITC)YMVm at 4 °C for 1 h. The following concentrations of WK(FITC)YMVm were used: 10 nM (wild type, L81^2.60F, E89G, and V105^3.32A), 30 nM (D281^7.32G), 40 nM (H102^3.29F, V160^4.60A, L268^ECL3A, N285^7.36A, and F292^7.43A), and 100 nM (L164^4.64A and T177A). Then increasing concentrations of fMLFK (100 nM–1 mM) were added, and incubated for another 1 h on ice. Mean fluorescent intensity values were measured by flow cytometry. Data were analyzed using Prism 7.0.

[2] = target: T2, wild-type (WT) and mutant FPR2 (Homo sapiens, UniProt P25090, F257Y); settings: FPR2 F257Y
T2 construct: expressed in transfected cells; host or cells: HEK293F
Description: as §1

[3] = target: T3, wild-type (WT) and mutant FPR2 (Homo sapiens, UniProt P25090, H102F); settings: FPR2 H102F
T3 construct: expressed in transfected cells; host or cells: HEK293F
T3 sequence (P25090 1-351 H102F): T1 sequence (P25090 1-351 E89G) with G89E, H102F
Description: as §1

[4] = target: T4, wild-type (WT) and mutant FPR2 (Homo sapiens, UniProt P25090, L198A); settings: FPR2 L198A
T4 construct: expressed in transfected cells; host or cells: HEK293F
Description: as §1

[5] = target: T5, wild-type (WT) and mutant FPR2 (Homo sapiens, UniProt P25090, L198F); settings: FPR2 L198F
T5 construct: expressed in transfected cells; host or cells: HEK293F
Description: as §1

[6] = target: T6, wild-type (WT) and mutant FPR2 (Homo sapiens, UniProt P25090, L81F); settings: FPR2 L81F
T6 construct: expressed in transfected cells; host or cells: HEK293F
T6 sequence (P25090 1-351 L81F): T1 sequence (P25090 1-351 E89G) with L81F, G89E
Description: as §1

[7] = target: T7, wild-type (WT) and mutant FPR2 (Homo sapiens, UniProt P25090, S211L)
T7 construct: expressed in transfected cells; host or cells: HEK293F
Description: as §1

[8] = target: T8, wild-type (WT) and mutant FPR2 (Homo sapiens, UniProt P25090, V160A); settings: FPR2 V160A
T8 construct: expressed in transfected cells; host or cells: HEK293F
T8 sequence (P25090 1-351 V160A): T1 sequence (P25090 1-351 E89G) with G89E, V160A
Description: as §1

[9] = tested on: wild-type (WT) and mutant FPR2; design: species or system human
Description: as §1

T2 sequence (P25090 whole entry F257Y): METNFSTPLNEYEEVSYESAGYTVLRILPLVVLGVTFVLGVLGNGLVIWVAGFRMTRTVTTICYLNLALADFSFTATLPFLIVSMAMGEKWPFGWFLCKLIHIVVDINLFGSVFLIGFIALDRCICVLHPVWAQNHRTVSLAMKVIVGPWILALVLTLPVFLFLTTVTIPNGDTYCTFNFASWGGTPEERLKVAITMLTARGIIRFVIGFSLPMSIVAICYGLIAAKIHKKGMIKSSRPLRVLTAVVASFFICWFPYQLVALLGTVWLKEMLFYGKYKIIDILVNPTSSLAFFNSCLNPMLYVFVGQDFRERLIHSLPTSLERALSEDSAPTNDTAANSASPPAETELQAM
T4 sequence (P25090 whole entry L198A): as the sequence (P25090 whole entry F257Y) above, with L198A, Y257F counted along it
T7 sequence (P25090 other isoform, or with tags, fused parts or gaps S211L): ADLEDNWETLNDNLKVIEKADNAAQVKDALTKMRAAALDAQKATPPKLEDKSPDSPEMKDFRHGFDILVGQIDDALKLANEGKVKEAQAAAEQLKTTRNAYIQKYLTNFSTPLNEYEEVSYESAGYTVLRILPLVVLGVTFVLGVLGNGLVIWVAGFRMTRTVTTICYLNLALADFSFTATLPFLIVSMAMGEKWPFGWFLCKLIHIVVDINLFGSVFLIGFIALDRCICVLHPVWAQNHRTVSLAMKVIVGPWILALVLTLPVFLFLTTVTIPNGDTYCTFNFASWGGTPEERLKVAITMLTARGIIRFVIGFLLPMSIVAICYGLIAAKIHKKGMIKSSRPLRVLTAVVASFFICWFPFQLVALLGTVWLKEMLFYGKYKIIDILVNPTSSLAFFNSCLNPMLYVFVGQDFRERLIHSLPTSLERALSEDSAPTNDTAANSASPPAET
T5 sequence (P25090 whole entry L198F): as the sequence (P25090 whole entry F257Y) above, with L198F, Y257F counted along it

Span (% of WT), saturation binding [1]: 134 ± 7 % of WT | Kd ([1]; mean ± s.e.m., n=3, SEM): 29.3 ± 6.0 nM | Span (% of WT), saturation binding [2]: 57 ± 6 % of WT | Kd ([2]; mean ± s.e.m., n=3, SEM): 154 ± 48 nM | Span (% of WT), saturation binding [3]: 44 ± 4 % of WT | Kd ([3]; mean ± s.e.m., n=3, SEM): 43.5 ± 16.0 nM | Span (% of WT), saturation binding [4]: 84 ± 14 % of WT | Kd ([4]; mean ± s.e.m., n=3, SEM): 41.5 ± 10.0 nM | Span (% of WT), saturation binding [5]: 60 ± 9 % of WT | Kd ([5]; mean ± s.e.m., n=3, SEM): 21.4 ± 5.3 nM | Span (% of WT), saturation binding [6]: 42 ± 4 % of WT | Kd ([6]; mean ± s.e.m., n=3, SEM): 24.3 ± 8.4 nM | Span (% of WT), saturation binding ([7]; FPR2 crystallization construct): 154 ± 21 % of WT | Kd ([7]; FPR2 crystallization construct (N-terminal bRIL, S211L, 5 C-terminal residues truncated), mean ± s.e.m., n=5, SEM): 27.7 ± 5.6 nM | Span (% of WT), saturation binding [8]: 30 ± 4 % of WT | Kd ([8]; mean ± s.e.m., n=4, SEM): 36.1 ± 18.1 nM
Structure (SMILES): CSCC[C@H](NC(=O)[C@H](Cc1ccc(O)cc1)NC(=O)[C@H](CCCCNC(=S)Nc1ccc2c(c1)C(=O)OC21c2ccc(O)cc2Oc2cc(O)ccc21)NC(=O)[C@@H](N)Cc1c[nH]c2ccccc12)C(=O)N[C@H](C(=O)N[C@H](CCSC)C(N)=O)C(C)C [WK(FITC)YMVm]
reduction of binding affinity of WK(FITC)YMVm ([9]; mutant F257Y vs WT): 7 fold | binding of WK(FITC)YMVm ([9]; mutants D281G and D281L): decreased binding | binding of WK(FITC)YMVm ([9]; mutations D106A and R201A): significantly impaired | binding of FPR2 to WK(FITC)YMVm ([9]; mutations V105F, L109A, F110A, V113A, L164W, F178A, F180A, W254A, F257A and M271A): abolish the binding
